Literature values, collected in patent US6451357B1, “Method for purification of aloesin” (Unigen Pharmaceuticals, Inc., priority 2001, dated 2002).

Legend:
[1] = system: tyrosinase; details: Lineweaver Burk diagram
[2] = system: tyrosinase; details: in vitro
[3] = system: de-pigmentation of the skin; details: relative to hydroquinone

Row | type of tyrosinase inhibition [1] | tyrosinase inhibition in words [2] | IC50 ([2]; substrate L-DOPA, read-out: concentration capable of 50% inhibition of tyrosinase activity) [µM] | Compound | quantity required to achieve a similar effect compared to the quantity of hydroquinone used [3]
1 | competitive inhibitor | strong inhibitor | 200 | CC(=O)Cc1cc(=O)c2c(C)cc(O)c([C@@H]3O[C@H](CO)[C@@H](O)[C@H](O)[C@H]3O)c2o1 [aloesin] | 
2 |  |  |  | OC[C@H]1O[C@@H](Oc2ccc(O)cc2)[C@H](O)[C@@H](O)[C@@H]1O [arbutin] | over 100 times
3 |  |  |  | O=C1O[C@H]([C@@H](O)CO)C(O)=C1O [ascorbic acid] | 17 times
4 | non-competitive inhibitor |  |  | COc1cc(/C=C/C(=O)O[C@@H]2[C@@H](O)[C@H](O)[C@@H](CO)O[C@H]2c2c(O)cc(C)c3c(=O)cc(CC(C)=O)oc23)ccc1O [2″-feruloylaloesin, 2″-O-feruloylaloesin] | 
